Measured values taken from ChEMBL document CHEMBL2074206, “Uraemic toxins induce proximal tubular injury via organic anion transporter 1-mediated uptake” (Br J Pharmacol, 2002).

Target: T1, Solute carrier family 22 member 6 (Homo sapiens, UniProt Q4U2R8)
T1 sequence (Q4U2R8 whole entry): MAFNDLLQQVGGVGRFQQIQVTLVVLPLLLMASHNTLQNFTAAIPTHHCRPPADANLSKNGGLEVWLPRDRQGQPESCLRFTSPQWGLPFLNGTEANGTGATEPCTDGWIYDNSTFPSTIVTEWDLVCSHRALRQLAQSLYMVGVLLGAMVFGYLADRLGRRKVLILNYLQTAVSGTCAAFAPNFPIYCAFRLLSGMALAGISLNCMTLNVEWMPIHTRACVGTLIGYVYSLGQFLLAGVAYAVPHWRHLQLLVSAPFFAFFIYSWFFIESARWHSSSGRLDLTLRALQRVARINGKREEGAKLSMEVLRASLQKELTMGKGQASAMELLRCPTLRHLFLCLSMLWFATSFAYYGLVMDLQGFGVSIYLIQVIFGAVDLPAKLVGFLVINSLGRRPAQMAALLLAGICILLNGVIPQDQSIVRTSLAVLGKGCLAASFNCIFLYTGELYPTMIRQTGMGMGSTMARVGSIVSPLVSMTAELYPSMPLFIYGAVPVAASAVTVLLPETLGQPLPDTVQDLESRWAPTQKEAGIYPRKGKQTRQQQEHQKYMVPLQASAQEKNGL
Assay: TP_TRANSPORTER: inhibition of PAH uptake in OAT1-expressing OK cells
Type: functional, cell-based

Compound: O=C(O)CNC(=O)c1ccc(O)cc1
- IC50: 25 µM
